Key:
[1] = biological target: c-kit (Homo sapiens, UniProt P10721); assay: c-kit assays of Examples 40 and 41 (AlphaScreen and 33P kinase assays, M-07e proliferation and phosphorylation)
Method: The M-07e proliferation is stimulated by SCF (Stem Cell Factor), which binds and activates c-Kit tyrosine kinase receptor. Inhibitors of c-Kit kinase reduce or eliminate the SCF mediated kinase activation, resulting in reduced cell proliferation of SCF stimulated cells. This inhibition is measured by the effect of compound concentration on cell growth to assess IC50 values.
This cell based assay was also used to assess phosphorylation. Samples were prepared with compounds as described for the growth inhibition assay only M-07e cells were seeded at 2×10^5 cells per well in a 96 well filter plate. Cells were incubated for 1 hour at 37° C. with the compounds as described above, and then stimulated by adding SCF to a final concentration of 50 ng/ml and incubated for 10 minutes at 37° C. […] Detection antibody (100 μl) was added to the plate and samples incubated for 1 hour at room temperature, then washed 4 times with wash buffer. HRP anti-rabbit antibody (100 μl) was added and samples incubated for 30 minutes at room temperature, then washed 4 times with wash buffer. Stabilized chromogen (100 μl) was added and samples incubated for 15-25 minutes at room temperature, then washed 4 times with wash buffer. Stop solution (100 μl) was added and the samples read on a Wallac Victor reader at 450 nm. The absorbance was plotted against the compound concentration and the IC50 concentration was determined.
Compounds to be tested were dissolved in DMSO to a concentration of 20 mM. These were diluted 30 μl into 120 μl of DMSO (4 mM) and 1 μl was added to an assay plate. These were then serially diluted 1:3 (50 μl to 100 μl DMSO) for a total of 8 points. Plates were prepared such that each kinase reaction is 20 μl in 1× kinase buffer (50 mM HEPES, pH 7.2, 5 mM MgCl2, 5 mM MnCl2, 0.01% NP-40, 0.2% BSA), 5% DMSO and 10 μM ATP. Substrate was 100 nM biotin-(E4Y)3 (Open Source Biotech, Inc.). C-kit kinase was at 0.1 ng per sample. After incubation of the kinase reaction for 1 hour at room temperature, 5 μl of donor beads (Streptavidin coated beads (Perkin Elmer Life Science) final concentration 1 μg/ml) in stop buffer (50 mM EDTA in 1× kinase buffer) was added, the sample was mixed and incubated for 20 minutes at room temperature before adding 5 μl of acceptor beads (PY20 coated beads (Perkin Elmer Life Science) final concentration 1 μg/ml) in stop buffer. The samples were incubated for 60 minutes at room temperature and the signal per well was read on AlphaQuest reader.

[2] = test system: cells with activating c-kit mutations; conditions: mutations in the catalytic region of c-kit; cited from earlier work

Chain of c-kit (P10721 with tags, fused parts or gaps): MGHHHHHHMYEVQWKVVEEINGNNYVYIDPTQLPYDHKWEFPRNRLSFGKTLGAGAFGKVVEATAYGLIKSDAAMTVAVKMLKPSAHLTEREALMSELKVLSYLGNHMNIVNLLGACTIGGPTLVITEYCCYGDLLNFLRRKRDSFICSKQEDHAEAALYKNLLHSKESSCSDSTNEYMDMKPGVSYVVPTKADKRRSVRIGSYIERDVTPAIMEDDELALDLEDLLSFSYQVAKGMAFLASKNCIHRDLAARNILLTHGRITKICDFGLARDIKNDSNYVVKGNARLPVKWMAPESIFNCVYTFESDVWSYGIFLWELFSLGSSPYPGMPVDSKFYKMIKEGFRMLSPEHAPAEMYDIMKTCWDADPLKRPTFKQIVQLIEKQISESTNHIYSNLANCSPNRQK

Row | SMILES | IC50 [1] | inhibition of cells with c-kit mutations [2]
1 | FC(F)(F)c1ccc(CNc2ccc(Cc3c[nH]c4ncccc34)cn2)cc1 [Compound P-0003, [5-(1H-Pyrrolo[2,3-b]pyridin-3-ylmethyl)-pyridin-2-yl]-(4-trifluoromethyl-benzyl)-amine] | < 1 µM | 
2 | CCN(CC)CCCOc1cnc2[nH]cc(Cc3ccc(NCc4ccc(C(F)(F)F)cc4)nc3)c2c1 [Compound P-0066, {5-[5-(3-Diethylamino-propoxy)-1H-pyrrolo[2,3-b]pyridin-3-ylmethyl]-pyridin-2-yl}-(4-trifluoromethyl-benzyl)-amine] | < 1 µM | 
3 | FC(F)(F)c1ccc(CNc2ccc(Cc3c[nH]c4ncc(OCCN5CCCC5)cc34)cn2)cc1 [Compound P-0064, {5-[5-(2-Pyrrolidin-1-yl-ethoxy)-1H-pyrrolo[2,3-b]pyridin-3-ylmethyl]-pyridin-2-yl}-(4-trifluoromethyl-benzyl)-amine] | < 1 µM | 
4 | CCN(CC)CCOc1cnc2[nH]cc(Cc3ccc(NCc4ccc(C(F)(F)F)cc4)nc3)c2c1 [Compound P-0060, {5-[5-(2-Diethylamino-ethoxy)-1H-pyrrolo[2,3-b]pyridin-3-ylmethyl]-pyridin-2-yl}-(4-trifluoromethyl-benzyl)-amine] | < 1 µM | 
5 | CC(C)CNc1ccc(Cc2c[nH]c3ncccc23)cn1 [Compound P-0028, Isobutyl-[5-(1H-pyrrolo[2,3-b]pyridin-3-ylmethyl)-pyridin-2-yl]-amine] | < 1 µM | 
6 | Cc1ccc(NC(=O)c2ccc(CN3CCN(C)CC3)cc2)cc1Nc1nccc(-c2cccnc2)n1 [STI571] |  | did not inhibit
7 | FC(F)(F)c1cccc(COc2ccc(Cc3c[nH]c4ncccc34)cn2)c1 [Compound P-0057, 3-[6-(3-Trifluoromethyl-benzyloxy)-pyridin-3-ylmethyl]-1H-pyrrolo[2,3-b]pyridine] | < 1 µM | 
8 | Oc1cnc2[nH]cc(Cc3ccc(NCc4ccc(Cl)cc4)nc3)c2c1 [Compound P-0062, 3-[6-(4-Chloro-benzylamino)-pyridin-3-ylmethyl]-1H-pyrrolo[2,3-b]pyridin-5-ol] | < 1 µM | 
9 | Clc1ccc(CNc2ccc(Cc3c[nH]c4ncc(OCCN5CCOCC5)cc34)cn2)cc1 [Compound P-0063, (4-Chloro-benzyl)-{5-[5-(2-morpholin-4-yl-ethoxy)-1H-pyrrolo[2,3-b]pyridin-3-ylmethyl]-pyridin-2-yl}-amine] | < 1 µM | 
10 | Clc1ccc(CNc2ccc(Cc3c[nH]c4nccc(Cl)c34)cn2)cc1 [Compound P-0009, [5-(4-chloro-1H-pyrrolo[2,3-b]pyridin-3-ylmethyl)-pyridin-2-yl]-(4-chloro-benzyl)-amine] | < 1 µM | 
11 | Fc1nc(NCc2ccc(Cl)cc2)ccc1Cc1c[nH]c2ncccc12 [Compound P-0082, (4-Chloro-benzyl)-[6-fluoro-5-(1H-pyrrolo[2,3-b]pyridin-3-ylmethyl)-pyridin-2-yl]-amine] | < 1 µM | 
12 | Clc1cccc(COc2ccc(Cc3c[nH]c4ncccc34)cn2)c1 [Compound P-0055, 3-[6-(3-Chloro-benzyloxy)-pyridin-3-ylmethyl]-1H-pyrrolo[2,3-b]pyridine] | < 1 µM | 
13 | c1cnc2[nH]cc(Cc3ccc(NCC4CCCCC4)nc3)c2c1 [Compound P-0033, Cyclohexylmethyl-[5-(1H-pyrrolo[2,3-b]pyridin-3-ylmethyl)-pyridin-2-yl]-amine] | < 1 µM | 
14 | O=C(c1ccc(Nc2cccc(OCc3ccccc3)c2)nc1)c1c[nH]c2ncccc12 [Compound P-0026, [6-(3-Benzyloxy-phenylamino)-pyridin-3-yl]-(1H-pyrrolo[2,3-b]pyridin-3-yl)-methanone] | < 1 µM | 
15 | C[C@H](Nc1ccc(Cc2c[nH]c3ncccc23)cn1)c1ccc(Cl)cc1 [Compound P-0075, [(S)-1-(4-Chloro-phenyl)-ethyl]-[5-(1H-pyrrolo[2,3-b]pyridin-3-ylmethyl)-pyridin-2-yl]-amine] | < 1 µM | 
16 | CC(C)Nc1ccc(C(=O)c2c[nH]c3ncccc23)cn1 [Compound P-0024, (6-Isopropylamino-pyridin-3-yl)-(1H-pyrrolo[2,3-b]pyridin-3-yl)-methanone] | < 1 µM | 
17 | O=C(Nc1ccc(Cc2c[nH]c3ncccc23)cn1)c1ccc(F)cc1 [Compound P-0073, 4-Fluoro-N-[5-(1H-pyrrolo[2,3-b]pyridin-3-ylmethyl)-pyridin-2-yl]-benzamide] | < 1 µM | 
18 | CCN(CC)CCCOc1cnc2[nH]cc(Cc3ccc(NCc4ccc(Cl)cc4)nc3)c2c1 [Compound P-0069, (4-Chloro-benzyl)-{5-[5-(3-diethylamino-propoxy)-1H-pyrrolo[2,3-b]pyridin-3-ylmethyl]-pyridin-2-yl}-amine] | < 1 µM | 

Row | SMILES | IC50 [1] | inhibition of cells with c-kit mutations [2]
19 | COc1cnc2[nH]cc(Cc3ccc(NCc4ccc(C(F)(F)F)cc4)nc3)c2c1 [Compound P-0053, [5-(5-Methoxy-1H-pyrrolo[2,3-b]pyridin-3-ylmethyl)-pyridin-2-yl]-(4-trifluoromethyl-benzyl)-amine] | < 1 µM | 
20 | CC(C)(C)Oc1ccc(Cc2c[nH]c3ncccc23)cn1 [Compound P-0020, 3-(6-tert-Butoxy-pyridin-3-ylmethyl)-1H-pyrrolo[2,3-b]pyridine] | < 1 µM | 
21 | COc1nc(NCc2ccc(C(F)(F)F)cc2)ccc1Cc1c[nH]c2ncccc12 [Compound P-0012, [6-Methoxy-5-(1H-pyrrolo[2,3-b]pyridin-3-ylmethyl)-pyridin-2-yl]-(4-trifluoromethyl-benzyl)-amine] | < 1 µM | 
22 | c1cnc2[nH]cc(Cc3ccc(NCC4CC4)nc3)c2c1 [Compound P-0032, Cyclopropylmethyl-[5-(1H-pyrrolo[2,3-b]pyridin-3-ylmethyl)-pyridin-2-yl]-amine] | < 1 µM | 
23 | FC(F)(F)c1ccc(CNc2ccc(Cc3c[nH]c4ncc(OCCN5CCOCC5)cc34)cn2)cc1 [Compound P-0065, {5-[5-(2-Morpholin-4-yl-ethoxy)-1H-pyrrolo[2,3-b]pyridin-3-ylmethyl]-pyridin-2-yl}-(4-trifluoromethyl-benzyl)-amine] | < 1 µM | 
24 | O=C(c1ccc(NCc2cccc(F)c2)nc1)c1c[nH]c2ncccc12 [Compound P-0016, [6-(3-Fluoro-benzylamino)-pyridin-3-yl]-(1H-pyrrolo[2,3-b]pyridin-3-yl)-methanone] | < 1 µM | 
25 | O=C(c1ccc(NCC2CCCCC2)nc1)c1c[nH]c2ncccc12 [Compound P-0031, [6-(Cyclohexylmethyl-amino)-pyridin-3-yl]-(1H-pyrrolo[2,3-b]pyridin-3-yl)-methanone] | < 1 µM | 
26 | O=C(Nc1ccc(Cc2c[nH]c3ncccc23)cn1)c1ccc(Cl)cc1 [Compound P-0074, 4-Chloro-N-[5-(1H-pyrrolo[2,3-b]pyridin-3-ylmethyl)-pyridin-2-yl]-benzamide] | < 1 µM | 
27 | O=C(c1ccc(NCC2CC2)nc1)c1c[nH]c2ncccc12 [Compound P-0030, [6-(Cyclopropylmethyl-amino)-pyridin-3-yl]-(1H-pyrrolo[2,3-b]pyridin-3-yl)-methanone] | < 1 µM | 
28 | Clc1ccc(CNc2ccc(Cc3c[nH]c4ncc(Cl)cc34)cn2)cc1 [Compound P-0059, (4-Chloro-benzyl)-[5-(5-chloro-1H-pyrrolo[2,3-b]pyridin-3-ylmethyl)-pyridin-2-yl]-amine] | < 1 µM | 
29 | Oc1cnc2[nH]cc(Cc3ccc(NCc4ccc(C(F)(F)F)cc4)nc3)c2c1 [Compound P-0061, 3-[6-(4-Trifluoromethyl-benzylamino)-pyridin-3-ylmethyl]-1H-pyrrolo[2,3-b]pyridin-5-ol] | < 1 µM | 
30 | COc1cnc2[nH]cc(Cc3ccc(NCc4ccc(Cl)cc4)nc3)c2c1 [Compound P-0058, (4-Chloro-benzyl)-[5-(5-methoxy-1H-pyrrolo[2,3-b]pyridin-3-ylmethyl)-pyridin-2-yl]-amine] | < 1 µM | 
31 | FC(F)(F)c1ccc(CNc2ccc(Cc3c[nH]c4ncc(Cl)cc34)cn2)cc1 [Compound P-0054, [5-(5-Chloro-1H-pyrrolo[2,3-b]pyridin-3-ylmethyl)-pyridin-2-yl]-(4-trifluoromethyl-benzyl)-amine] | < 1 µM | 
32 | Clc1ccc(NCc2ccc(Cc3c[nH]c4ncccc34)cn2)cc1 [Compound P-0078, (4-Chloro-phenyl)-[5-(1H-pyrrolo[2,3-b]pyridin-3-ylmethyl)-pyridin-2-ylmethyl]-amine] | < 1 µM | 
33 | O=C(Nc1ccc(Cc2c[nH]c3ncccc23)cn1)c1ccc(C(F)(F)F)cc1 [Compound P-0072, N-[5-(1H-Pyrrolo[2,3-b]pyridin-3-ylmethyl)-pyridin-2-yl]-4-trifluoromethyl-benzamide] | < 1 µM | 
34 | CC(C)CNc1ccc(C(=O)c2c[nH]c3ncccc23)cn1 [Compound P-0025, (6-Isobutylamino-pyridin-3-yl)-(1H-pyrrolo[2,3-b]pyridin-3-yl)-methanone] | < 1 µM | 
35 | O=S(=O)(Nc1ccc(Cc2c[nH]c3ncccc23)cn1)c1ccc(C(F)(F)F)cc1 [Compound P-0071, N-[5-(1H-Pyrrolo[2,3-b]pyridin-3-ylmethyl)-pyridin-2-yl]-4-trifluoromethyl-benzenesulfonamide] | < 1 µM | 
36 | Clc1ccc(COc2ccc(Cc3c[nH]c4ncccc34)cn2)cc1 [Compound P-0056, 3-[6-(4-Chloro-benzyloxy)-pyridin-3-ylmethyl]-1H-pyrrolo[2,3-b]pyridine] | < 1 µM | 
